Patent publication US9249129B2, “Morpholino substituted urea derivatives as mTOR inhibitors” (CELLZOME LIMITED, priority 2010, dated 2016)

How the values were obtained:
Experiment in all cases: kinobeads assay with mass spectrometry detection of kinases (kinase selectivity profile)
Format in all cases: binding
kinases (kinome) [1] = target: T1, kinases (kinome) (Homo sapiens, UniProt Q99640); settings: MYT1 (Other), IPI00909627
T1 construct: determined in kinobeads assays with mass spectrometry detection of kinases as described previously; endogenous in cells; host or cells: cell lysate
T1 sequence (Q99640 1-499): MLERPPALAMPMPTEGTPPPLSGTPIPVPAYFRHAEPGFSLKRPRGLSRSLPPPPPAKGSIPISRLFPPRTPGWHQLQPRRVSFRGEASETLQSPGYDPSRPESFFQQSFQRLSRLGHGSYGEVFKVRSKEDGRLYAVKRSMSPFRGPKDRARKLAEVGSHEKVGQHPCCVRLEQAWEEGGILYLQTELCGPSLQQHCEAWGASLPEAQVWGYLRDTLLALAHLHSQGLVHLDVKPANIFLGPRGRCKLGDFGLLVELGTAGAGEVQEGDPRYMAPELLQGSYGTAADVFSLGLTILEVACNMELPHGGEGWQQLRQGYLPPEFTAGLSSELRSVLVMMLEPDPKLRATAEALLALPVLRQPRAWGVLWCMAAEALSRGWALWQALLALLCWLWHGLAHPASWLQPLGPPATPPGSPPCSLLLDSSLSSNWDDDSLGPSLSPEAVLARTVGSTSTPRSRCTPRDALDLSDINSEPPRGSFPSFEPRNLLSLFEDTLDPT
From the text: (§1) The protein kinase complement of the human genome (the kinome) was described previously (Manning et al., 2002. Science 298(5600):1912-1934). Sequence accession numbers are defined by the International Protein Index (IPI) (Kersey et al., 2004. Proteomics 4(7):1985-1988).

kinases (kinome) [2] = target: T2, kinases (kinome) (Homo sapiens, UniProt P17252); settings: PKCa (AGC), IPI00385449
T2 construct: determined in kinobeads assays with mass spectrometry detection of kinases as described previously; endogenous in cells; host or cells: cell lysate
From the text: as §1

kinases (kinome) [3] = target: T3, kinases (kinome) (Homo sapiens, UniProt Q9Y6R4); settings: MAP3K4 (STE), IPI00386260
T3 construct: determined in kinobeads assays with mass spectrometry detection of kinases as described previously; endogenous in cells; host or cells: cell lysate
From the text: as §1

kinases (kinome) [4] = target: T4, kinases (kinome) (Homo sapiens, UniProt Q13233); settings: MAP3K1 (STE), IPI00855985
T4 construct: determined in kinobeads assays with mass spectrometry detection of kinases as described previously; endogenous in cells; host or cells: cell lysate
From the text: as §1

kinases (kinome) [5] = target: T5, kinases (kinome) (Homo sapiens, UniProt Q04759); settings: PKCt (AGC), IPI00029196
T5 construct: determined in kinobeads assays with mass spectrometry detection of kinases as described previously; endogenous in cells; host or cells: cell lysate
From the text: as §1

kinases (kinome) [6] = target: T6, kinases (kinome) (Homo sapiens, UniProt Q9Y572); settings: RIPK3 (TKL), IPI00847572
T6 construct: determined in kinobeads assays with mass spectrometry detection of kinases as described previously; endogenous in cells; host or cells: cell lysate
From the text: as §1

kinases (kinome) [7] = target: T7, kinases (kinome) (Homo sapiens, UniProt P68400); settings: CK2a1 (Other), IPI00016613
T7 construct: determined in kinobeads assays with mass spectrometry detection of kinases as described previously; endogenous in cells; host or cells: cell lysate
From the text: as §1

kinases (kinome) [8] = target: T8, kinases (kinome) (Homo sapiens, UniProt P42356); settings: PIK4Ca (Lipid Kinase), IPI00070943
T8 construct: determined in kinobeads assays with mass spectrometry detection of kinases as described previously; endogenous in cells; host or cells: cell lysate
From the text: as §1

kinases (kinome) [9] = target: T9, kinases (kinome) (Homo sapiens, UniProt Q04771); settings: ALK2 (TKL), IPI00029219
T9 construct: determined in kinobeads assays with mass spectrometry detection of kinases as described previously; endogenous in cells; host or cells: cell lysate
T9 sequence (Q04771 21-509): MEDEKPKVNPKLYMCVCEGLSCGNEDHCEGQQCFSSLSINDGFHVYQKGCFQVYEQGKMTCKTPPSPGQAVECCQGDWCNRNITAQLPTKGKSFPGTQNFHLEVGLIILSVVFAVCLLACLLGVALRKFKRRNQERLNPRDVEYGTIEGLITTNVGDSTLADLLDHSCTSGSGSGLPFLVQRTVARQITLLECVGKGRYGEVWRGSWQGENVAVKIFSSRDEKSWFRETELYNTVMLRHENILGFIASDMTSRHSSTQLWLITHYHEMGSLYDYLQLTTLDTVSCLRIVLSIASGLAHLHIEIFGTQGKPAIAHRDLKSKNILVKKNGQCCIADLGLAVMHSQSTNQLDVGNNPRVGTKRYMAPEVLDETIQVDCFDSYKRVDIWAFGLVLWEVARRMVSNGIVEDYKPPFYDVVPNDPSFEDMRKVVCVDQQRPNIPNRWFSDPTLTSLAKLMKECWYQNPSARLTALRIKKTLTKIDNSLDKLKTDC
From the text: as §1

kinases (kinome) [10] = target: T10, kinases (kinome) (Homo sapiens, UniProt Q13315); settings: ATM (Atypical), IPI00298306
T10 construct: determined in kinobeads assays with mass spectrometry detection of kinases as described previously; endogenous in cells; host or cells: cell lysate
From the text: as §1

kinases (kinome) [11] = target: T11, kinases (kinome) (Homo sapiens, UniProt Q8IU85); settings: CaMK1d (CAMK), IPI00170508
T11 construct: determined in kinobeads assays with mass spectrometry detection of kinases as described previously; endogenous in cells; host or cells: cell lysate
From the text: as §1

kinases (kinome) [12] = target: T12, kinases (kinome) (Homo sapiens, UniProt P53667); settings: LIMK1 (TKL), IPI00291702
T12 construct: determined in kinobeads assays with mass spectrometry detection of kinases as described previously; endogenous in cells; host or cells: cell lysate
From the text: as §1

kinases (kinome) [13] = target: T13, kinases (kinome) (Homo sapiens, UniProt P29597); settings: TYK2 (TK), IPI00022353
T13 construct: determined in kinobeads assays with mass spectrometry detection of kinases as described previously; endogenous in cells; host or cells: cell lysate
From the text: as §1

kinases (kinome) [14] = target: T14, kinases (kinome) (Homo sapiens, UniProt P42684); settings: ARG (TK), IPI00329488
T14 construct: determined in kinobeads assays with mass spectrometry detection of kinases as described previously; endogenous in cells; host or cells: cell lysate
From the text: as §1

kinases (kinome) [15] = target: T15, kinases (kinome) (Homo sapiens, UniProt Q14680); settings: MELK (CAMK), IPI00006471
T15 construct: determined in kinobeads assays with mass spectrometry detection of kinases as described previously; endogenous in cells; host or cells: cell lysate
From the text: as §1

kinases (kinome) [16] = target: T16, kinases (kinome) (Homo sapiens, UniProt Q13554); settings: CaMK2b (CAMK), IPI00221305
T16 construct: determined in kinobeads assays with mass spectrometry detection of kinases as described previously; endogenous in cells; host or cells: cell lysate
From the text: as §1

Measured: IC50

T3 sequence (Q9Y6R4 whole entry): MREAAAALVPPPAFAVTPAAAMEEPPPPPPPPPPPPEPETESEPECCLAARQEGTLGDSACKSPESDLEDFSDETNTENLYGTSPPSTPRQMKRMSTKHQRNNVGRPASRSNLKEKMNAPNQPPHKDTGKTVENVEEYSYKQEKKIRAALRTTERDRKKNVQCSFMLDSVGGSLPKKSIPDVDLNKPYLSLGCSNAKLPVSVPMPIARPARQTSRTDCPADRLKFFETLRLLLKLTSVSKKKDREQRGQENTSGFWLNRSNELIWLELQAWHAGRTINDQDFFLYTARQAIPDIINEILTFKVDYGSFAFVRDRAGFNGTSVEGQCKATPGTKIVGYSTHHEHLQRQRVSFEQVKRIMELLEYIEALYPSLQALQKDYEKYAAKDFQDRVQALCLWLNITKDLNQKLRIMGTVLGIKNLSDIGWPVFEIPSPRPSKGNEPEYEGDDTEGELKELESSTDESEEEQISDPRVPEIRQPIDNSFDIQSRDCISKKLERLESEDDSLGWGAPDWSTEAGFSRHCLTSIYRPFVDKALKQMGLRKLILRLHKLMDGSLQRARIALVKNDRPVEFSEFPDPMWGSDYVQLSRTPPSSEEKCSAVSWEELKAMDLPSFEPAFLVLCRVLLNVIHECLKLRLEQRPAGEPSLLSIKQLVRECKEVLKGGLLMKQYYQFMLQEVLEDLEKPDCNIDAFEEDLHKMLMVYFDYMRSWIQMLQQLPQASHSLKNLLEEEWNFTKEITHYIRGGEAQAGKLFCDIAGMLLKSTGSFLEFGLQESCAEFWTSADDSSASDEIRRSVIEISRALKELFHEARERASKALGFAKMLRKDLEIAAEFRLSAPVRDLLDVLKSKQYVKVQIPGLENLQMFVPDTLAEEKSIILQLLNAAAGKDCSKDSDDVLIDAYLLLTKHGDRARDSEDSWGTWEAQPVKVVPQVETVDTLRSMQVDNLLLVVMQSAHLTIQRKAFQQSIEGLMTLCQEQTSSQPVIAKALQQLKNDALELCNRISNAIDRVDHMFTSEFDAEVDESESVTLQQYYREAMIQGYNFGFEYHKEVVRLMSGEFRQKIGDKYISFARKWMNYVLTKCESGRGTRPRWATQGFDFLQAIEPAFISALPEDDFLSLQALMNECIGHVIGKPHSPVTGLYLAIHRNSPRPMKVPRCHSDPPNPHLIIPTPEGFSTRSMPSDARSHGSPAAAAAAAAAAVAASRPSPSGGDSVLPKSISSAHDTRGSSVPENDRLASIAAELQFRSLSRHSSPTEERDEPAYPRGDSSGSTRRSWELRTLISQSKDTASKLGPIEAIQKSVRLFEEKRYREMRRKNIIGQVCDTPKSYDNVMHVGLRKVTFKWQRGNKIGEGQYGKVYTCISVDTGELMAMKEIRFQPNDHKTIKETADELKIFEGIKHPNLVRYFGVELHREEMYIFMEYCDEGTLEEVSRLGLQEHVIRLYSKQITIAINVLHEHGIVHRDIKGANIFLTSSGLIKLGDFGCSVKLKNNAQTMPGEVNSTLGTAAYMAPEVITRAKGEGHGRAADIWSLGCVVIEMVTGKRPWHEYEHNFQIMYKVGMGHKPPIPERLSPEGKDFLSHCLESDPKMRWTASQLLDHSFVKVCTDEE
T5 sequence (Q04759 whole entry): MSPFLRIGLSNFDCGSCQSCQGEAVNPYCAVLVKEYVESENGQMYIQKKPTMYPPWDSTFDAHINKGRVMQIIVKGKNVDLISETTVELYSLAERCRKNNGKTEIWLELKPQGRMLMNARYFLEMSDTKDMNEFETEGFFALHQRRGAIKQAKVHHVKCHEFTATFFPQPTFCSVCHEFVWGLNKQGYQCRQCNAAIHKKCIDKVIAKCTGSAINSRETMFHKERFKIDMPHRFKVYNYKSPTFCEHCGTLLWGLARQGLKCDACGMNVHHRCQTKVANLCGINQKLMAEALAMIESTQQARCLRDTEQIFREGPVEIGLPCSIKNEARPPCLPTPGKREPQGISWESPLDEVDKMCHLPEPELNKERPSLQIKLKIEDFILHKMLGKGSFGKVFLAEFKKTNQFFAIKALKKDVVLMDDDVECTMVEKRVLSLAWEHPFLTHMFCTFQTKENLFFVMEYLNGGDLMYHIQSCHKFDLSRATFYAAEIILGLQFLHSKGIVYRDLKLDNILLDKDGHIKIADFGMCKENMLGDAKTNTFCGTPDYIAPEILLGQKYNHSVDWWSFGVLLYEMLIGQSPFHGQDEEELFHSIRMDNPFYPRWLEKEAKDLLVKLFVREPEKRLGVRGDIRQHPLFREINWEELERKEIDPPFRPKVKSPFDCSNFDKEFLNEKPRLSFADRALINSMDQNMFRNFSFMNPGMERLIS
T15 sequence (Q14680 whole entry): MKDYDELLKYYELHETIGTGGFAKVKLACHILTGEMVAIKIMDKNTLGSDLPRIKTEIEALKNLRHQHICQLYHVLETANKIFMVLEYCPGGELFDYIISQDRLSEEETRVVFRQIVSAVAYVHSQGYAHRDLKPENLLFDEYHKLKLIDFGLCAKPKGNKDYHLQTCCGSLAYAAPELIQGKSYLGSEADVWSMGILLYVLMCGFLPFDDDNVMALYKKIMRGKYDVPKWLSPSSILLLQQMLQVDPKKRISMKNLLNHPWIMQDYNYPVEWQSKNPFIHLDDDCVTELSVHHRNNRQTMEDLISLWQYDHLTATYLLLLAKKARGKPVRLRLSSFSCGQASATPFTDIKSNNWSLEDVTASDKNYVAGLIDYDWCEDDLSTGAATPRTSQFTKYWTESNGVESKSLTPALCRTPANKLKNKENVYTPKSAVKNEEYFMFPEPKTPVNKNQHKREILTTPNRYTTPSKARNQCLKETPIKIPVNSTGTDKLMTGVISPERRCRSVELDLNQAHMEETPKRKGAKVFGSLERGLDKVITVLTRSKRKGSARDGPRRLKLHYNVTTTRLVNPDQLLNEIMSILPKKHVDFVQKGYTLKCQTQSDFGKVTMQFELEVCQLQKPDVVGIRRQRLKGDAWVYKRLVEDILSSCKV
T7 sequence (P68400 whole entry): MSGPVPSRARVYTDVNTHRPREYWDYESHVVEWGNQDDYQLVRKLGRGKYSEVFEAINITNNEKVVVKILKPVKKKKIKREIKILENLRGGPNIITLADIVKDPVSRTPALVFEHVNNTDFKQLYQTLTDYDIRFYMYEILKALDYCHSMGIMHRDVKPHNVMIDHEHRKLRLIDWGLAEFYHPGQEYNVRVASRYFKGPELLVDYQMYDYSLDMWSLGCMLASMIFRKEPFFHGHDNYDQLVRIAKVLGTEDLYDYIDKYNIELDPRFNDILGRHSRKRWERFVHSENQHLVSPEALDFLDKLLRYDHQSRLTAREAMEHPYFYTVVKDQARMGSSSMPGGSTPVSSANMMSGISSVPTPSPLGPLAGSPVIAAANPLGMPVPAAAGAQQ
T4 sequence (Q13233 whole entry): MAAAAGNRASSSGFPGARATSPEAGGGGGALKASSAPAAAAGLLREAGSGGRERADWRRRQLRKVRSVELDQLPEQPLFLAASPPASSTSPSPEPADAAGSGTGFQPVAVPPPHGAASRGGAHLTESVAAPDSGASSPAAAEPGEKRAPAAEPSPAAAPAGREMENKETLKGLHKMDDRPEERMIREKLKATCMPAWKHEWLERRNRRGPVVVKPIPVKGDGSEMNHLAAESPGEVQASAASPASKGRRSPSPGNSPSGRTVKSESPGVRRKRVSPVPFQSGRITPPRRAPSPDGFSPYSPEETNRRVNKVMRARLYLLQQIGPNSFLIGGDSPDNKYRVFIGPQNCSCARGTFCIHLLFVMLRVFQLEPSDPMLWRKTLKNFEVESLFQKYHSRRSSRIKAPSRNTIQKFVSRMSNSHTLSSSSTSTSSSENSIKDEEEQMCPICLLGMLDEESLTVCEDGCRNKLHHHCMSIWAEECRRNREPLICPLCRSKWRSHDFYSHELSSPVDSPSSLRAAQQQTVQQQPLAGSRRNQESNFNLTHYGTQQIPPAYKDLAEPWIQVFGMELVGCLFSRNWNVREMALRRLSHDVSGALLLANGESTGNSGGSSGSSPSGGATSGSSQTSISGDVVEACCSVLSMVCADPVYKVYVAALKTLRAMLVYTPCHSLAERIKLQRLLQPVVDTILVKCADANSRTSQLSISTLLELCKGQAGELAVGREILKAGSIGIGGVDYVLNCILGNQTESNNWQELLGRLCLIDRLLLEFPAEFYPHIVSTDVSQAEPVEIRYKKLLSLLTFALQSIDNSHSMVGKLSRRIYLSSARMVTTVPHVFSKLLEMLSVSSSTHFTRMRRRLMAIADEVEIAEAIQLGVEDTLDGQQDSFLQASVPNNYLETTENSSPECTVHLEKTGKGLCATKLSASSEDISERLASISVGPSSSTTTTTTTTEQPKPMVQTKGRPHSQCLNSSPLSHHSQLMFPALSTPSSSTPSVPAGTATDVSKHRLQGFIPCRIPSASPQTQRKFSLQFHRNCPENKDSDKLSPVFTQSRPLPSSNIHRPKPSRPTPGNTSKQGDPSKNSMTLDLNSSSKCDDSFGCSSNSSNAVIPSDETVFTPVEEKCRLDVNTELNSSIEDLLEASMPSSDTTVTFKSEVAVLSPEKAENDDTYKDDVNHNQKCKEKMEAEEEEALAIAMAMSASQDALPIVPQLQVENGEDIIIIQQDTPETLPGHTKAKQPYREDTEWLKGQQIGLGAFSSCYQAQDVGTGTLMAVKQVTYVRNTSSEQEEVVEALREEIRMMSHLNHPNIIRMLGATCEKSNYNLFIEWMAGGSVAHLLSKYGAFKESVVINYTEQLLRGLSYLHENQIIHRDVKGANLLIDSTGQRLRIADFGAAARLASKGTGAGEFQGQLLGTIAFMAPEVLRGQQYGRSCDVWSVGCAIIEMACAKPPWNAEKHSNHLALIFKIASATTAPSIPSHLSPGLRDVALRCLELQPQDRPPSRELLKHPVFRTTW

C[C@H]1COCCN1c1nc(-c2ccc(NC(=O)NC3CC3)cc2)cc(-c2ccccc2S(C)(=O)=O)n1 [Example 4, (S)-1-cyclopropyl-3-(4-(2-(3-methylmorpholino)-6-(2-(methylsulfonyl)phenyl)pyrimidin-4-yl)phenyl)urea]
not listed: kinases (kinome) [16]
> 10 µM: all other assays above

C[C@H]1COCCN1c1cc(-c2ccccc2S(C)(=O)=O)nc(-c2ccc(NC(=O)NC3CC3)cc2)n1 [Example 6, (S)-1-cyclopropyl-3-(4-(4-(3-methylmorpholino)-6-(2-(methylsulfonyl)phenyl)pyrimidin-2-yl)phenyl)urea]
> 10 µM: all assays above

CCNC(=O)Nc1ccc(-c2cc(-c3ccccc3C#N)nc(N3CCOC[C@@H]3C)n2)cc1 [Example 8, (S)-1-(4-(6-(2-cyanophenyl)-2-(3-methylmorpholino)pyrimidin-4-yl)phenyl)-3-ethylurea]
> 10 µM: all assays above

C[C@H]1COCCN1c1nc(-c2ccc(NC(=O)NC3CC3)cc2)cc(-c2cc(F)ccc2S(C)(=O)=O)n1 [Example 40, (S)-1-cyclopropyl-3-(4-(6-(5-fluoro-2-(methylsulfonyl)phenyl)-2-(3-methylmorpholino)pyrimidin-4-yl)phenyl)urea]
> 10 µM: all assays above

C[C@H]1COCCN1c1cc(-c2ccccn2)nc(-c2ccc(NC(=O)NCCO)cc2)n1 [Example 43, (S)-1-(2-hydroxyethyl)-3-(4-(4-(3-methylmorpholino)-6-(pyridin-2-yl)pyrimidin-2-yl)phenyl)urea]
> 10 µM: all assays above

C[C@H]1COCCN1c1nc(-c2ccc(NC(=O)NC3CC3)cc2)cc(-c2cccnc2S(C)(=O)=O)n1 [Example 46, (S)-1-cyclopropyl-3-(4-(2-(3-methylmorpholino)-6-(2-(methylsulfonyl)pyridin-3-yl)pyrimidin-4-yl)phenyl)urea]
> 10 µM: all assays above

C[C@H]1COCCN1c1nc(-c2ccc(NC(=O)N[C@H]3CCC[C@@H]3O)cc2)cc(-c2cc(F)ccc2S(C)(=O)=O)n1 [Example 76, 1-(4-(6-(5-fluoro-2-(methylsulfonyl)phenyl)-2-((S)-3-methylmorpholino)pyrimidin-4-yl)phenyl)-3-((1S,2S)-2-hydroxycyclopentyl)urea]
> 10 µM: all assays above
